Results as given in US20250059174A1, “Pharmaceutical Compounds and Compositions as C-Kit Kinase Inhibitors” (Enanta Pharmaceuticals, Inc., priority 2023, published 2025).

Key:
[1] = molecular target: Recombinant human c-KIT kinase (Homo sapiens (Human), UniProt P10721); experiment: c-KIT kinase chemiluminescence assay (ADP-Glo); type: biochemical; details: ATP 50 μM
Protocol: The c-KIT Kinase Enzyme System (V4498) and ADP-Glo™ Kinase Assay kit (V6930) were purchased from Promega (Madison, WI). DMSO (D2650) was purchased from Sigma-Aldrich (Burlington, MA).
Kinase Reaction: The kinase assay was based on the recommended protocol by c-KIT Kinase Enzyme System from Promega. Recombinant human c-KIT kinase in 3 μL of assay buffer (40 mM Tris pH 7.5, 20 mM MgCl2, 0.1 mg/mL BSA and 50 μM DTT) was added to the test or high control wells and 3 μL of assay buffer was added to the low control wells. The microplate was centrifuged at 800 rotations per minute (rpm) for 60 s and incubated at room temperature (RT) for 30 min. Next, 2 μL of buffered ATP and polyEY substrate solution was added to all wells. The microplate was centrifuged at 800 rpm for 60 s and incubated at RT for 2 h.
ADP detection with ADP-Glo™ Kinase Assay: After the kinase reaction incubation, 5 μL of ADP-Glo™ reagent was added to all wells. The microplate was centrifuged at 800 rpm for 60 s and incubated at RT for 40 min. Ten microliter (10 μL) of Kinase Detection Reagent (Luciferin-Luciferase system) was then added to all wells. The microplate was centrifuged at 800 rpm for 60 s and incubated at RT for 60 min. Kinase activity was measured as increase in luminescence at RT in an Envision plate reader equipped with 560 nm filters and operating in endpoint mode. Data Analysis: Endpoint chemiluminescence from high and low control wells were used to calculate normalized c-KIT activity at various concentrations of test compounds. The normalized activities were fitted to inhibitor-versus-normalized response fit in GraphPad Prism 7 to determine half-maximal inhibitory concentration (IC50) and hill coefficient values (H).
Where I is the inhibitor concentration and H is the Hill coefficient.

M-07e cells = experiment: M-07e cellular assay (SCF-mediated cell proliferation); type: cell-based; details: Homo sapiens, 72 hours, CellTiter Glo
Protocol: M-07e cells (Creative Bioarray, CSC-C0249) which endogenously express human c-KIT were used to evaluate the effect of compounds on stem cell factor (SCF)-mediated cell proliferation. M-07e cells were cultured in growth media (RPMI+10% FBS+1% penicillin/streptomycin+10 ng/mL GM-CSF) at 5E5-1.5E6 cells/mL, replenishing media every 3-4 days. 1.5E4 cells were seeded per well in 384 well tissue culture treated plates in 20 μL assay media (RPMI+[…]+1% penicillin/streptomycin) without growth factor stimulation and incubated at 37° C. in a CO2 humidity-controlled incubator. Twenty-four hours later, three-fold serially diluted test compounds in media containing SCF (at the previously determined EC90) were added to the plated M-07e cells and incubated for an additional 72 hours. Cell viability was determined by adding 25 μL CellTiter Glo (Promega) to the cells and the luminescence was measured using a Perkin Elmer Envision plate reader. The EC50 was determined using GraphPad Prism. Percent cell growth was determined after normalizing the curve to the mean RLU high control (no compound control wells) at 100% and the mean RLU low control (no SCF control wells) at 0%.

Recombinant human c-KIT kinase, sequence (P10721 26-976): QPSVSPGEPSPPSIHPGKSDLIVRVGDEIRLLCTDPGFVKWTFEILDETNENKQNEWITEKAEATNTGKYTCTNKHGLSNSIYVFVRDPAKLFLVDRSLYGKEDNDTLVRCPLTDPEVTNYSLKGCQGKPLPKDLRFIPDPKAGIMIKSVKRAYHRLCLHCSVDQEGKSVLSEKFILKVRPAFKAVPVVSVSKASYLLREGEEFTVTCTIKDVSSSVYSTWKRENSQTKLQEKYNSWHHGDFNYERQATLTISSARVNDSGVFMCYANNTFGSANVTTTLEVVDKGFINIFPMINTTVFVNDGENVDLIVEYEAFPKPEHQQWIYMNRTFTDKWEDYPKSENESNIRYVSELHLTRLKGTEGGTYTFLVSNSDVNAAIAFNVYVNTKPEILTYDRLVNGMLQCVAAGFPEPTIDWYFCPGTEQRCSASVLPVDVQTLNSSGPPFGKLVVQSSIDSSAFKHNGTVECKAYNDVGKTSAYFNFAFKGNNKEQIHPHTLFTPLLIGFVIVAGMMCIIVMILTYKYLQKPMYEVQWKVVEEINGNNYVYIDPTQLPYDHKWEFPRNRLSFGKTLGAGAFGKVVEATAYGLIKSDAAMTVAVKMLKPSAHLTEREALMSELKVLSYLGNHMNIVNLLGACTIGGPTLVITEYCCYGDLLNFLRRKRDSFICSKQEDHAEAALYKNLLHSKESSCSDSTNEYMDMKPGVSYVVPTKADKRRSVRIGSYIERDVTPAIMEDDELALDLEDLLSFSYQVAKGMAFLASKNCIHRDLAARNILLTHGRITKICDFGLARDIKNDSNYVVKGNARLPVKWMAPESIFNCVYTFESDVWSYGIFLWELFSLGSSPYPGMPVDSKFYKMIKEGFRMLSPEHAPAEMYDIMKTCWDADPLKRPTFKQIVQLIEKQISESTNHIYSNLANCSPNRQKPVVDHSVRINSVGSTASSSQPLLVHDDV

Row | IC50 [1] [nM] | SMILES | EC50 (M-07e cells) [nM]
1 | 100 to 1000 | Cc1ccc(-c2noc([C@H]3C[C@@H]3F)n2)cc1NC(=O)c1cnn(-c2cccc(N)c2)c1 [Example 74] | > 1000
2 | 100 to 1000 | Cc1ccc(-c2noc([C@H]3C[C@@H]3F)n2)cc1NC(=O)c1cnc(-c2ccccc2)o1 [Example 85] | 100 to 1000
3 | 100 to 1000 | Cc1ccc(-c2noc([C@H]3C[C@@H]3F)n2)cc1NC(=O)c1cnn2ccc(NC(=O)OC(C)(C)C)cc12 [Example 90] | 100 to 1000
4 | < 100 | Cc1ccc(-c2noc([C@H]3C[C@@H]3F)n2)cc1NC(=O)c1cnn2ccc(N)cc12 [Example 92] | < 100
5 | 100 to 1000 | Cc1ccc(-c2noc([C@H]3C[C@@H]3F)n2)cc1NC(=O)c1cnn2ccc(NC(=O)c3ccccc3)cc12 [Example 93] | 100 to 1000
6 | 100 to 1000 | Cc1ccc(-c2noc([C@H]3C[C@@H]3F)n2)cc1NC(=O)c1cnn2ccc(NC(=O)OC3CC3)cc12 [Example 94] | 100 to 1000
7 | 100 to 1000 | Cc1ccc(-c2noc([C@H]3C[C@@H]3F)n2)cc1NC(=O)c1cnn2ccc(NC(=O)OCc3ccccc3)cc12 [Example 95] | 100 to 1000
8 | 100 to 1000 | Cc1ccc(-c2noc([C@H]3C[C@@H]3F)n2)cc1NC(=O)c1cnn2ccc(NC(=O)NC3CC3)cc12 [Example 96] | 100 to 1000
9 | > 1000 | Cc1ccc(-c2noc([C@H]3C[C@@H]3F)n2)cc1NC(=O)c1cn2ncsc2n1 [Example 97] | > 1000
10 | < 100 | Cc1nc(Nc2ncc(C(=O)Nc3cc(-c4noc([C@H]5C[C@@H]5F)n4)ccc3C)s2)cc(N2CC3(COC3)C2)n1 [Example 98-1] | < 100
11 | > 1000 | CC(=O)NC1CN(c2ncc(C(=O)Nc3cc(-c4noc([C@H]5C[C@@H]5F)n4)ccc3C)s2)C1 [Example 98-2] | > 1000
12 | > 1000 | Cc1ccc(-c2noc([C@H]3C[C@@H]3F)n2)cc1NC(=O)c1cnc(N2CC(C(=O)OC(C)(C)C)C2)s1 [Example 98-3] | > 1000
13 | > 1000 | Cc1ccc(-c2noc([C@H]3C[C@@H]3F)n2)cc1NC(=O)c1cnc(N2CC(C(=O)NC3CC3)C2)s1 [Example 98-5] | > 1000
14 | > 1000 | Cc1ccc(-c2noc([C@H]3C[C@@H]3F)n2)cc1NC(=O)c1ccc2c(c1)CC(=O)N2 [Example 98-6] | > 1000
15 | > 1000 | Cc1ccc(-c2noc([C@H]3C[C@@H]3F)n2)cc1NC(=O)c1ccc2[nH]c(=O)[nH]c2c1 [Example 98-7] | > 1000
16 | > 1000 | Cc1ccc(-c2noc([C@H]3C[C@@H]3F)n2)cc1NC(=O)c1cnc(N2CCC3(CCC(=O)N3)CC2)s1 [Example 98-8] | > 1000
17 | > 1000 | Cc1ccc(-c2noc([C@H]3C[C@@H]3F)n2)cc1NC(=O)c1cnn(-c2ccccc2)c1C [Example 98] | > 1000
18 | < 100 | Cc1ccc(-c2noc([C@H]3C[C@@H]3F)n2)cc1NC(=O)c1cnc2n1CCc1ccccc1-2 [Example 100] | 100 to 1000
19 | < 100 | Cc1ccc(-c2noc([C@H]3C[C@@H]3F)n2)cc1NC(=O)c1cnc2n1C(C)c1ccccc1-2 (some centres unmarked) [Example 102] | 100 to 1000
20 | 100 to 1000 | C=CCC1c2ccccc2-c2ncc(C(=O)Nc3cc(-c4noc([C@H]5C[C@@H]5F)n4)ccc3C)n21 (some centres unmarked) [Example 103] | 100 to 1000
21 | > 1000 | Cc1ccc(-c2noc([C@H]3C[C@@H]3F)n2)cc1NC(=O)c1cnc2n1C(Cc1ccccc1)c1ccccc1-2 (some centres unmarked) [Example 104] | > 1000
22 | 100 to 1000 | Cc1ccc(-c2noc([C@H]3C[C@@H]3F)n2)cc1NC(=O)c1cnc2n1C(C)(C)c1ccccc1-2 [Example 105] | 100 to 1000
23 | < 100 | C#Cc1ccn2ncc(C(=O)Nc3cc(-c4noc([C@H]5C[C@@H]5F)n4)ccc3C)c2c1 [Example 108] | < 100

Row | IC50 [1] [nM] | SMILES | EC50 (M-07e cells) [nM]
24 | < 100 | Cc1ccc(-c2noc([C@H]3C[C@@H]3F)n2)cc1NC(=O)c1cnn2cc(-c3cn(CCO)nn3)ccc12 [Example 109] | < 100
25 | 100 to 1000 | Cc1ccc(-c2noc([C@H]3C[C@@H]3F)n2)cc1NC(=O)c1cnn2ccc(-c3cn(CCO)nn3)cc12 [Example 110] | < 100
26 | 100 to 1000 | Cc1ccc(-c2noc([C@H]3C[C@@H]3F)n2)cc1NC(=O)c1cnn2ccc(-c3cn(C(F)F)nn3)cc12 [Example 111] | < 100
27 | < 100 | Cc1ccc(-c2noc([C@H]3C[C@@H]3F)n2)cc1NC(=O)c1cnn2cc(-c3cn(CC(F)(F)F)nn3)ccc12 [Example 112] | < 100
28 | < 100 | Cc1ccc(-c2noc([C@H]3C[C@@H]3F)n2)cc1NC(=O)c1cnn2cc(-c3cn(C(F)(F)F)nn3)ccc12 [Example 113] | < 100
29 | < 100 | Cc1ccc(-c2noc([C@H]3C[C@@H]3F)n2)cc1NC(=O)c1cnn2cc(-c3cn(C4CC4)nn3)ccc12 [Example 114] | < 100
30 | < 100 | Cc1ccc(-c2noc([C@H]3C[C@@H]3F)n2)cc1NC(=O)c1cnn2cc(-c3cn(C4CC(F)(F)C4)nn3)ccc12 [Example 115] | < 100
31 | < 100 | COCCn1cc(-c2ccc3c(C(=O)Nc4cc(-c5noc([C@H]6C[C@@H]6F)n5)ccc4C)cnn3c2)nn1 [Example 116] | < 100
32 | < 100 | Cc1ccc(-c2noc([C@H]3C[C@@H]3F)n2)cc1NC(=O)c1cnn2cc(-c3cn(C[C@H](C)O)nn3)ccc12 [Example 117] | < 100
33 | < 100 | Cc1ccc(-c2noc([C@H]3C[C@@H]3F)n2)cc1NC(=O)c1cnn2cc(-c3cn(CC(C)(C)O)nn3)ccc12 [Example 118] | < 100
34 | < 100 | Cc1ccc(-c2noc([C@H]3C[C@@H]3F)n2)cc1NC(=O)c1cnn2cc(-c3cn(CC4(C)COC4)nn3)ccc12 [Example 119] | < 100
35 | 100 to 1000 | Cc1ccc(-c2noc([C@H]3C[C@@H]3F)n2)cc1NC(=O)c1cnn2cc(-c3cnnn3CCO)ccc12 [Example 120] | 100 to 1000
36 | > 1000 | Cc1ccc(-c2noc([C@H]3C[C@@H]3F)n2)cc1NC(=O)c1cnn2cc(-c3cnnn3CC(F)(F)F)ccc12 [Example 121] | > 1000
37 | < 100 | Cc1ccc(-c2noc([C@H]3C[C@@H]3F)n2)cc1NC(=O)c1cnn2ccc(-c3cn(CC(C)(C)O)nn3)cc12 [Example 122] | < 100
38 | 100 to 1000 | Cc1ccc(-c2noc([C@H]3C[C@@H]3F)n2)cc1NC(=O)c1cnn2cc(-c3cn(C45CC(C4)C5)nn3)ccc12 [Example 123] | < 100
39 | < 100 | Cc1ccc(-c2noc([C@H]3C[C@@H]3F)n2)cc1NC(=O)c1cnn2ccc(-c3cn(C45CC(F)(C4)C5)nn3)cc12 [Example 124] | < 100
40 | 100 to 1000 | Cc1ccc(-c2noc([C@H]3C[C@@H]3F)n2)cc1NC(=O)c1cnn2cc(-c3cn(C45CC(F)(C4)C5)nn3)ccc12 [Example 125] | < 100
41 | < 100 | Cc1ccc(-c2noc([C@H]3C[C@@H]3F)n2)cc1NC(=O)c1cnn2ccc(-c3cn(C45CC(C(F)(F)F)(C4)C5)nn3)cc12 [Example 126] | < 100
42 | 100 to 1000 | Cc1ccc(-c2noc([C@H]3C[C@@H]3F)n2)cc1NC(=O)c1cnn2ccc(C#N)cc12 [Example 127] | 100 to 1000
43 | > 1000 | Cc1ccc(-c2noc([C@H]3C[C@@H]3F)n2)cc1NC(=O)c1cnn2cc(C#N)ccc12 [Example 128] | 100 to 1000
44 | 100 to 1000 | Cc1ccc(-c2noc([C@H]3C[C@@H]3F)n2)cc1NC(=O)c1cnn2ccc(-c3nn[nH]n3)cc12 [Example 129] | > 1000
45 | 100 to 1000 | Cc1ccc(-c2noc([C@H]3C[C@@H]3F)n2)cc1NC(=O)c1cnn2cc(-c3nn[nH]n3)ccc12 [Example 130] | > 1000
46 | 100 to 1000 | Cc1ccc(-c2noc([C@H]3C[C@@H]3F)n2)cc1NC(=O)c1cnn2ccc(-c3nnn(C)n3)cc12 [Example 131] | < 100
